In brackets after ≈: the same amount, converted by molar mass. Starred links: 1 amine or outer side, 2 acyl side, 3 side chain; linkers in the order of their positions; H or OH if unused. Positions of bridges follow the written chain, without caps; N, C: chain ends. Non-standard residues stand in square brackets, D forms with d. Residues, ends and D or L forms follow the SMILES beside them. *: point of attachment. Decanoyl(3R-OH) = CCCCCCC[C@@H](O)CC(=O)*; Igl = N[C@H](C(=O)O)C1Cc2ccccc2C1; azaDab = NCCN(N[*:1])C(=O)[*:2]; dDab = NCC[C@@H](N)C(=O)O; Dab = NCC[C@H](N)C(=O)O
Key:
in vitro [1] = settings: human
Method: Cytotoxicity of the synthesised peptides was evaluated by comparison with commercially available colistin (polymyxin E), polymyxin B (Sigma chemical Co., St. Louis, Mo., U.S.A.) and synthetic octapeptin C4 by conducting lactate dehydrogenase (LDH) assay. CC50 values calculated based on curve fitting of dose dependent inhibition of cell growth represented the cytotoxicity of the peptide. Human kidney 2 (HK2) cells were seeded as 2000 cells per well in a 384 well cell culture plate in a final volume of 20 μL in DMEM/F12 medium (Invitrogen #11330057), in which 10% of FBS was added. Cells were incubated for 24 hours at 37° C., 5% CO2 to allow cells to attach to the plates. Similar conditions were employed for HEK293 and HepG2 cytotoxicity assays.
Cytotoxicity to HEK293 and HepG2 cells was determined using the resazurin assay (McMillian, M. K.; Li, L.; Parker, J. B.; Patel, L.; Zhong, Z.; Gunnett, J. W.; Powers, W. J.; Johnson, M. D. An improved resazurin-based cytotoxicity assay for hepatic cells; Cell Biol. Toxicol. 2002, 18, 157-173; O'Brien, J.; Wilson, I.; Orton, T.; Pognan, F. Investigation of the Alamar Blue (resazurin) fluorescent dye for the assessment of mammalian cell cytotoxicity. Eur. J. Biochem. 2000, 267, 5421-5426). In brief, HEK293 and HepG2 cells were seeded at 4000 cells/well in black-wall, clear-bottom 384-well plates (Corning, Australia) and incubated for 24 h at 37° C., 5% CO2. Compounds were then added into each well. After 24 h incubation, 5 μM resazurin was added per well and incubated at 37° C. for 2 h. Fluorescence intensity was then read using a Polarstar Omega with excitation/emission 560/590. The data was then analyzed using GraphPad Prism 6 software. CC50 values were determined using GraphPad Prism 6 software (Inc. La Jolla, Calif.).

in vitro [2] = settings: human; remark: listed apart in the source
How it was run: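 Viability is measured by resazurin reduction (5 μM, 2 h, 37 °C) after cells seeded at 4000 per well are treated with compound for 24 h.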

A. baumannii GN_093 PmxR = settings: GN 093 PmxR
How it was run: (§1)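 Mid-log cultures grown in Mueller Hinton broth at 37° C were tested by 2-fold broth microdilution at 5×10^5 CFU/mL final. Compounds were dissolved in water and tested over a final range of 32 to 0.015 μg/mL.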

[3] = system: K. pneumoniae ATCC 700603, MDR; settings: ATCC 700603
How it was run: as §1

P. aeruginosa ATCC 27853 = settings: ATCC 27853
How it was run: as §1

A. baumannii ATCC 19606 = settings: ATCC 19606
How it was run: as §1

[4] = system: P. aeruginosa GN_105, PmxR; settings: GN 105, PmxR
How it was run: as §1

[5] = system: K. pneumoniae GN_106, PmxR; settings: GN 106, PmxR
How it was run: as §1

[6] = system: K. pneumoniae ATCC BAA-2146, NDM-1 pos; settings: ATCC BAA-2146
How it was run: as §1

[7] = system: S. aureus ATCC 25923, MSSA; settings: ATCC 25923
How it was run: as §1

E. coli ATCC 25922 = settings: ATCC 25922
How it was run: as §1

[8] = system: P. aeruginosa GN_043, PmxR
How it was run: as §1

K. pneumoniae ATCC 13883 = settings: ATCC 13883
How it was run: as §1

[9] = system: K. pneumoniae GN_102 PmxR; settings: GN 102 PmxR
How it was run: as §1

Neisseria gonorrhoeae = test: MIC determination, Neisseria gonorrhoeae; type: cell-based; settings: strain FA19 ATCC BAA-1838
Method: Bacteria were either obtained from American Type Culture Collection (ATCC; Manassas, Va., USA) or independent academic clinical isolate collections, as listed in Table 18 below. Bacteria were cultured in Nutrient broth (NB; Bacto Laboratories, catalogue No. 234000) or Mueller Hinton broth (MHB; Bacto Laboratories, catalogue No. 211443) at 37° C. overnight with shaking (˜180 RPM). A sample of each culture was then diluted 50-fold in fresh MHB and incubated at 37° C. for 2-3 h with shaking (˜180 RPM). Compound stock solutions were prepared as 0.64 mg/mL or 2.56 mg/mL in water. The compounds, at twice the final desired concentration, were serially diluted 2-fold across the wells of 96-well plates (Polystyrene, Corning, catalogue No. 3370). Mid-log phase bacterial cultures (after 2-3 h incubation) were diluted to a final concentration of 1×10^6 colony forming units (CFU)/mL, and 50 μL was added to each well giving a final cell density of 5×10^5 and a compound concentration range of 32 μg/mL to 0.015 μg/mL (128-0.06 μg/mL against P. aeruginosa PA9704).

CCCCCCC[C@@H](O)CC(=O)N[C@H](CCN)C(=O)N[C@H]1CCNC(=O)[C@H](CC(C)C)NC(=O)[C@H](CCN)NC(=O)[C@H](CCN)NC(=O)[C@H](CC(C)C)NC(=O)[C@@H](Cc2ccccc2)NC(=O)N(CCN)NC1=O [compound 8636, 3(R)OH-nC9CO-D-Dab-cyc[L-Dab-azaDAB-D-Phe-L-Leu-L-Dab-L-Dab-L-Leu]] ({Decanoyl(3R-OH)}-[dDab][Dab][azaDab][dF]L[Dab][Dab]L; lactam 2-C)
CC50 at 24 h (in vitro [1]): > 300 µM | CC50 at 24 h (in vitro [2]): > 300 µM | MIC A. baumannii Cl Ptyela 10073 4512:2, PmxR (A. baumannii GN_093 PmxR): >32 µg/mL | MIC K. pneumoniae ATCC 700603, MDR [3]: 16 µg/mL (≈ 15.3 µM) | MIC P. aeruginosa ATCC 27853 (P. aeruginosa ATCC 27853): 4 µg/mL (≈ 3.83 µM) | MIC A. baumannii ATCC 19606 (A. baumannii ATCC 19606): >32 µg/mL | MIC P. aeruginosa PA9704, PmxR [4]: >32 µg/mL | MIC K. pneumoniae Cl 183-16357-20352, PmxR [5]: >32 µg/mL | MIC K. pneumoniae ATCC BAA-2146, NDM-1 pos [6]: >32 µg/mL | MIC S. aureus ATCC 25923, MSSA [7]: 32 µg/mL (≈ 30.6 µM) | MIC E. coli ATCC 25922 (E. coli ATCC 25922): 16 µg/mL (≈ 15.3 µM) | MIC, P. aeruginosa FADDI-PA070, PmxR ([8]; strain name as in Table 11): >32 µg/mL | MIC K. pneumoniae ATCC 13883 (K. pneumoniae ATCC 13883): >32 µg/mL | MIC K. pneumoniae Cl Koprana 10065 0661:1 PmxR [9]: >32 µg/mL

CCCCCCC[C@@H](O)CC(=O)N[C@H](CCN)C(=O)N[C@H]1CCNC(=O)[C@H](C2Cc3ccccc3C2)NC(=O)[C@H](CCN)NC(=O)[C@H](CCN)NC(=O)[C@H](CC(C)C)NC(=O)[C@@H](Cc2ccccc2)NC(=O)[C@H](CCN)NC1=O [compound 8912, 3(R)OH-nC9CO-D-Dab-cyc[L-Dab-L-Dab-D-Phe-L-Leu-L-Dab-L-Dab-L-indanylgly]] ({Decanoyl(3R-OH)}-[dDab][Dab][Dab][dF]L[Dab][Dab][Igl]; lactam 2-C)
CC50 at 24 h (in vitro [2]): 28 µM | MIC N. gonorrhoeae FA19 ATCC BAA-1838 (Neisseria gonorrhoeae): 0.78 µg/mL (≈ 0.706 µM) | MIC A. baumannii GN_093 PmxR (A. baumannii GN_093 PmxR): 4 µg/mL (≈ 3.62 µM) | MIC K. pneumoniae ATCC 700603, MDR [3]: 4 µg/mL (≈ 3.62 µM) | MIC P. aeruginosa ATCC 27853 (P. aeruginosa ATCC 27853): 2 µg/mL (≈ 1.81 µM) | MIC A. baumannii ATCC 19606 (A. baumannii ATCC 19606): 4 µg/mL (≈ 3.62 µM) | MIC P. aeruginosa GN_105, PmxR [4]: 2 µg/mL (≈ 1.81 µM) | MIC K. pneumoniae GN_106, PmxR [5]: 2 µg/mL (≈ 1.81 µM) | MIC K. pneumoniae ATCC BAA-2146, NDM-1 pos [6]: 4 µg/mL (≈ 3.62 µM) | MIC S. aureus ATCC 25923, MSSA [7]: 2 µg/mL (≈ 1.81 µM) | MIC E. coli ATCC 25922 (E. coli ATCC 25922): 2 µg/mL (≈ 1.81 µM) | MIC P. aeruginosa GN_043, PmxR ([8]; polymyxin-resistant): 2 µg/mL (≈ 1.81 µM) | MIC K. pneumoniae ATCC 13883 (K. pneumoniae ATCC 13883): 2 µg/mL (≈ 1.81 µM) | MIC K. pneumoniae GN_102 PmxR [9]: 2 µg/mL (≈ 1.81 µM)

From patent US11279733B2, “Peptide antibiotics” (priority 2017, dated 2022)
